From patent US20200009168A1, “MICROBIOME REGULATORS AND RELATED USES THEREOF” (KALEIDO BIOSCIENCES, INC., priority 2015, published 2020)

How the values were obtained:
Assay type in all cases: cell-based
[1] = test system: Bacteroides caccae ATCC 43185 "BCA.26"; experiment: Sugar-supported growth of commensal bacteria, BCA.26; settings: 0.5% w/v sugar, 37° C., 18-24 hours, anaerobic; OD600 divided by OD600 with 0.5% w/v dextrose
Protocol: (§1) An in vitro assay was performed to assess the ability of various bacterial strains, including commensals of the gastrointestinal tract, to utilize different sugars as growth substrates. This assay was designed to assess the ability of selected natural monosaccharides, disaccharides and synthetic sugars to promote the growth of microbiota associated with a healthy state. Bacterial strains were handled at all steps in an anaerobic chamber (AS-580, Anaerobe Systems) featuring a palladium catalyst. The chamber was initially made anaerobic by purging with an anaerobic gas mixture of 5% hydrogen, 5% carbon dioxide and 90% nitrogen and subsequently maintained in an anaerobic state using this same anaerobic gas mixture. Anaerobicity of the chamber was confirmed daily using Oxoid anaerobic indicator strips that change color in the presence of oxygen. All culture media, assay plates, other reagents and plastic consumables were pre-reduced in the anaerobic chamber for 24-48 hours prior to contact with bacteria. Sugars were prepared at 5% w/v in water, filter-sterilized and added to Costar 3370 assay plates for a final concentration of 0.5% w/v in the assay, with each microbiome regulator assayed in two non-adjacent wells and dextrose and water supplied as positive and negative controls.
(§2) Bacterial isolates were obtained from the American Type Culture Collection (ATCC) and Leibniz Institute DSMZ-German Institute of Microorganisms and Cell Cultures (DSMZ). Cultures of the Bacteroidetes Bacteroides caccae ATCC 43185 “BCA.26”, Bacteroides thetaiotaomicron ATCC 29741 “BTH.8”, Bacteroides cellulosilyticus DSM 14838 “BCE.71”, Parabacteroides distasonis ATCC 8503 “PDI.6” and Prevotella copri DSM 18205 “PCO.72”; the Clostridiales Clostridium scindens ATCC 35704 “CSC.32”, Dorea formicigenerans ATCC 27755 “DFO.36” and Ruminococcus obeum ATCC 29714 “ROB.74”; and the Bifidobacteria Bifidobacterium longum ATCC 15707 “BLO.16” and Bifidobacterium longum DSM 20088 “BLO.83”, were grown anaerobically in Chopped Meat Glucose broth (CMG, Anaerobe Systems), a pre-reduced enriched medium including lean ground beef, enzymatic digest of casein, yeast extract, potassium phosphate, dextrose, cysteine, hemin and Vitamin K1, for 18-48 hours at 37° C. Inocula were prepared by determining the optical density of each culture at […] (OD600) in a Costar 3370 polystyrene 96-well flat-bottom assay plate using a Biotek Synergy 2 plate reader with Gen5 2.0 All-In-One Microplate Reader Software according to manufacturer's protocol, and diluting the cells to OD600 0.01 final in defined and semi-defined media that were prepared without sugars. D. formicigenerans, P. distasonis and B. longum isolates were tested in 900 mg/L sodium chloride, 26 mg/L calcium chloride dihydrate, 20 mg/L magnesium chloride hexahydrate, 10 mg/L manganese chloride tetrahydrate, 40 mg/L ammonium sulfate, 4 mg/L iron sulfate heptahydrate, 1 mg/L cobalt chloride hexahydrate, 300 mg/L potassium phosphate dibasic, 1.5 g/L sodium phosphate dibasic, 5 g/L sodium bicarbonate, 0.125 mg/L biotin, 1 mg/L pyridoxine, […], 75 mg/L histidine, 75 mg/L glycine, 75 mg/L tryptophan, 150 mg/L arginine, 150 mg/L methionine, 150 mg/L threonine, 225 mg/L valine, 225 mg/L isoleucine, 300 mg/L leucine, 400 mg/L cysteine, and 450 mg/L proline (Theriot C M et al. Nat Commun. 2014; 5:3114), supplemented with 0-3.5% (v/v) CMG. B. thetaiotaomicron, B. caccae and B. cellulosyliticus were tested in 100 mM potassium phosphate buffer (pH 7.2), 15 mM sodium chloride, 8.5 mM ammonium sulfate, 4 mM L-cysteine, 1.9 μM hematin, 200 μM L-histidine, 100 μM magnesium chloride, 1.4 μM iron sulfate heptahydrate, 50 μM calcium chloride, 1 μg/mL vitamin K3 and 5 ng/mL vitamin B12 (Martens E C et al. Cell Host & Microbe 2008; 4, 447-457). […]

[2] = test system: Bacteroides cellulosilyticus DSM 14838 "BCE.71"; experiment: Sugar-supported growth of commensal bacteria, BCE.71; settings: 0.5% w/v sugar, 37° C., 18-24 hours, anaerobic; OD600 divided by OD600 with 0.5% w/v dextrose
Protocol: as §1, §2

[3] = test system: Bacteroides thetaiotaomicron ATCC 29741 "BTH.8"; experiment: Sugar-supported growth of commensal bacteria, BTH.8; settings: 0.5% w/v sugar, 37° C., 18-24 hours, anaerobic; OD600 divided by OD600 with 0.5% w/v dextrose
Protocol: as §1, §2

[4] = test system: Parabacteroides distasonis ATCC 8503 "PDI.6"; experiment: Sugar-supported growth of commensal bacteria, PDI.6; settings: 0.5% w/v sugar, 37° C., 18-24 hours, anaerobic; OD600 divided by OD600 with 0.5% w/v dextrose
Protocol: as §1, §2

[5] = test system: Prevotella copri DSM 18205 "PCO.72"; experiment: Sugar-supported growth of commensal bacteria, PCO.72; settings: 0.5% w/v sugar, 37° C., 18-24 hours, anaerobic; OD600 divided by OD600 with 0.5% w/v dextrose
Protocol: as §1, §2

[6] = test system: Clostridium scindens ATCC 35704 "CSC.32"; experiment: Sugar-supported growth of commensal bacteria, CSC.32; settings: 0.5% w/v sugar, 37° C., 18-24 hours, anaerobic; OD600 divided by OD600 with 0.5% w/v dextrose
Protocol: as §1, §2

[7] = test system: panel of 10 commensals; experiment: Sugar-supported growth, whole panel of 10 commensals; settings: 0.5% w/v sugar, summary in words
Protocol: as §1, §2

[8] = test system: Dorea formicigenerans ATCC 27755 "DFO.36"; experiment: Sugar-supported growth of commensal bacteria, DFO.36; settings: 0.5% w/v sugar, 37° C., 18-24 hours, anaerobic; OD600 divided by OD600 with 0.5% w/v dextrose
Protocol: as §1, §2

[9] = test system: Bifidobacterium longum ATCC 15707 "BLO.16"; experiment: Sugar-supported growth of commensal bacteria, BLO.16; settings: 0.5% w/v sugar, 37° C., 18-24 hours, anaerobic; OD600 divided by OD600 with 0.5% w/v dextrose
Protocol: as §1, §2

[10] = test system: Ruminococcus obeum ATCC 29714 "ROB.74"; experiment: Sugar-supported growth of commensal bacteria, ROB.74; settings: 0.5% w/v sugar, 37° C., 18-24 hours, anaerobic; OD600 divided by OD600 with 0.5% w/v dextrose
Protocol: as §1, §2

[11] = test system: Bifidobacterium longum DSM 20088 "BLO.83"; experiment: Sugar-supported growth of commensal bacteria, BLO.83; settings: 0.5% w/v sugar, 37° C., 18-24 hours, anaerobic; OD600 divided by OD600 with 0.5% w/v dextrose
Protocol: as §1
Bacterial isolates were obtained from the American Type Culture Collection (ATCC) and Leibniz Institute DSMZ-German Institute of Microorganisms and Cell Cultures (DSMZ). Cultures of the Bacteroidetes Bacteroides caccae ATCC 43185 “BCA.26”, Bacteroides thetaiotaomicron ATCC 29741 “BTH.8”, Bacteroides cellulosilyticus DSM 14838 “BCE.71”, Parabacteroides distasonis ATCC 8503 “PDI.6” and Prevotella copri DSM 18205 “PCO.72”; the Clostridiales Clostridium scindens ATCC 35704 “CSC.32”, Dorea formicigenerans ATCC 27755 “DFO.36” and Ruminococcus obeum ATCC 29714 “ROB.74”; and the Bifidobacteria Bifidobacterium longum ATCC 15707 “BLO.16” and Bifidobacterium longum DSM 20088 “BLO.83”, were grown anaerobically in Chopped Meat Glucose broth (CMG, Anaerobe Systems), a pre-reduced enriched medium including lean ground beef, enzymatic digest of casein, yeast extract, potassium phosphate, dextrose, cysteine, hemin and Vitamin K1, for 18-48 hours at 37° C. Inocula were prepared by determining the optical density of each culture at […] (OD600) in a Costar 3370 polystyrene 96-well flat-bottom assay plate using a Biotek Synergy 2 plate reader with Gen5 2.0 All-In-One Microplate Reader Software according to manufacturer's protocol, and diluting the cells to OD600 0.01 final in defined and semi-defined media that were prepared without sugars. […]

Structure (SMILES) | Average Normalized Growth (NGV), BCA.26 [1] | Average Normalized Growth (NGV), BCE.71 [2] | Average Normalized Growth (NGV), BTH.8 [3] | Average Normalized Growth (NGV), PDI.6 [4] | Average Normalized Growth (NGV), PCO.72 [5] | Average Normalized Growth (NGV), CSC.32 [6] | taxa or strains of the commensal panel whose growth was supported [7] | Average Normalized Growth (NGV), DFO.36 [8] | Average Normalized Growth (NGV), BLO.16 [9] | Average Normalized Growth (NGV), ROB.74 [10] | Average Normalized Growth (NGV), BLO.83 [11]
OC[C@H]1O[C@@H](O[C@@H]2[C@@H](CO)OC(O)(CO)[C@H]2O)[C@H](O)[C@@H](O)[C@H]1O (mixture of isomers) [lactulose] | ++ (0.6-1) | ++ (0.6-1) | − (<0.2) | + (0.2-0.6) | ++ (0.6-1) | − (<0.2) | supported growth of some strains from the taxa Bacteroidetes and Bifidobacteria |  |  |  | 
OC[C@H]1O[C@H](O[C@H]2[C@H](O)[C@@H](O)[C@H](O)O[C@@H]2CO)[C@H](O)[C@@H](O)[C@@H]1O [D (+) maltose] | + (0.2-0.6) | ++ (0.6-1) | +++ (>1) | ++ (0.6-1) | +++ (>1) | − (<0.2) | supported some commensals from the taxa Bacteroidetes, Firmicutes, including Lachnospiraceae, and Bifidobacteria | +++ (>1) | +++ (>1) |  | 
O=C[C@@H](O)[C@H](O)[C@H](O)CO [D (−) arabinose] | ++ (0.6-1) | + (0.2-0.6) | ++ (0.6-1) | − (<0.2) | − (<0.2) | ++ (0.6-1) | supported some commensals from the taxa Bacteroidetes and Firmicutes | − (<0.2) | − (<0.2) | ++ (0.6-1) | 
OC[C@@H](O)[C@@H](O)[C@H](O)[C@H](O)CO [D-mannitol] | − (<0.2) | − (<0.2) | − (<0.2) | − (<0.2) | − (<0.2) | + (0.2-0.6) | supported growth of CSC.32 alone among the panel of 10 commensals |  | − (<0.2) |  | 
O=C[C@@H](O)[C@@H](O)[C@H](O)[C@H](O)CO [D-mannose] | +++ (>1) | +++ (>1) | +++ (>1) | +++ (>1) | − (<0.2) | + (0.2-0.6) | supported some commensals from the taxa Bacteroidetes and Firmicutes | − (<0.2) | − (<0.2) | ++ (0.6-1) | 
OC[C@@H](O)[C@@H](O)[C@H](O)[C@@H](O)CO [D-sorbitol] |  |  |  |  |  |  | supported growth of CSC.32 alone among the panel of 10 commensals |  |  |  | 
O=C[C@H](O)[C@@H](O)[C@H](O)CO [D-xylose] | +++ (>1) | ++ (0.6-1) | +++ (>1) | + (0.2-0.6) | ++ (0.6-1) | − (<0.2) | supported some commensals from the taxa Bacteroidetes and Bifidobacteria | − (<0.2) | ++ (0.6-1) | − (<0.2) | 
O=C[C@H](O)[C@@H](O)[C@@H](O)CO [L-arabinose] | +++ (>1) | ++ (0.6-1) | +++ (>1) | − (<0.2) | ++ (0.6-1) | − (<0.2) | supported some commensals from the taxa Bacteroidetes, Firmicutes, including Lachnospiraceae, and Bifidobacteria | +++ (>1) | ++ (0.6-1) |  | − (<0.2)
C[C@H](O)[C@@H](O)[C@@H](O)[C@H](O)C=O [L-fucose] | +++ (>1) | + (0.2-0.6) | + (0.2-0.6) | − (<0.2) | − (<0.2) | − (<0.2) | supported some commensals from the taxa Bacteroidetes and Firmicutes | − (<0.2) | − (<0.2) | ++ (0.6-1) | 
O=C[C@H](O)[C@H](O)[C@H](O)CO [ribose] | − (<0.2) | + (0.2-0.6) | − (<0.2) | +++ (>1) | − (<0.2) | +++ (>1) | supported some commensals from the taxa Bacteroidetes and Firmicutes | +++ (>1) | − (<0.2) | − (<0.2) | 
OC[C@H]1O[C@H](O[C@]2(CCl)O[C@H](CCl)[C@@H](O)[C@@H]2O)[C@H](O)[C@@H](O)[C@H]1Cl [sucralose] |  |  |  |  |  |  | supported growth of PCO.72 alone among the panel of 10 commensals |  |  |  | 
OC[C@H]1O[C@@](CO)(O[C@H]2O[C@H](CO)[C@@H](O)[C@H](O)[C@H]2O)[C@@H](O)[C@@H]1O [sucrose] |  |  |  |  |  |  | supported some commensals from the taxa Bacteroidetes, Firmicutes, including Lachnospiraceae, and Bifidobacteria |  |  |  | 
